Source: patent US20240018161A1, “MODULATORS OF CYSTIC FIBROSIS TRANSMEMBRANE CONDUCTANCE REGULATOR” (VERTEX PHARMACEUTICALS INCORPORATED, priority 2020, published 2024)
Each block holds one compound with its values, some of them ahead of it.

Experiments:
[1] = biological target: T1, CFTR-mediated chloride transport in human intestinal epithelial enteroid cells (Homo sapiens, UniProt P13569); experiment: Membrane potential dye, Enteroid Assay B; type: cell-based; conditions: Enteroid Assay B; for EC50: read-out: Ent. B EC50
T1 sequence (P13569 with tags, fused parts or gaps DEL508-508): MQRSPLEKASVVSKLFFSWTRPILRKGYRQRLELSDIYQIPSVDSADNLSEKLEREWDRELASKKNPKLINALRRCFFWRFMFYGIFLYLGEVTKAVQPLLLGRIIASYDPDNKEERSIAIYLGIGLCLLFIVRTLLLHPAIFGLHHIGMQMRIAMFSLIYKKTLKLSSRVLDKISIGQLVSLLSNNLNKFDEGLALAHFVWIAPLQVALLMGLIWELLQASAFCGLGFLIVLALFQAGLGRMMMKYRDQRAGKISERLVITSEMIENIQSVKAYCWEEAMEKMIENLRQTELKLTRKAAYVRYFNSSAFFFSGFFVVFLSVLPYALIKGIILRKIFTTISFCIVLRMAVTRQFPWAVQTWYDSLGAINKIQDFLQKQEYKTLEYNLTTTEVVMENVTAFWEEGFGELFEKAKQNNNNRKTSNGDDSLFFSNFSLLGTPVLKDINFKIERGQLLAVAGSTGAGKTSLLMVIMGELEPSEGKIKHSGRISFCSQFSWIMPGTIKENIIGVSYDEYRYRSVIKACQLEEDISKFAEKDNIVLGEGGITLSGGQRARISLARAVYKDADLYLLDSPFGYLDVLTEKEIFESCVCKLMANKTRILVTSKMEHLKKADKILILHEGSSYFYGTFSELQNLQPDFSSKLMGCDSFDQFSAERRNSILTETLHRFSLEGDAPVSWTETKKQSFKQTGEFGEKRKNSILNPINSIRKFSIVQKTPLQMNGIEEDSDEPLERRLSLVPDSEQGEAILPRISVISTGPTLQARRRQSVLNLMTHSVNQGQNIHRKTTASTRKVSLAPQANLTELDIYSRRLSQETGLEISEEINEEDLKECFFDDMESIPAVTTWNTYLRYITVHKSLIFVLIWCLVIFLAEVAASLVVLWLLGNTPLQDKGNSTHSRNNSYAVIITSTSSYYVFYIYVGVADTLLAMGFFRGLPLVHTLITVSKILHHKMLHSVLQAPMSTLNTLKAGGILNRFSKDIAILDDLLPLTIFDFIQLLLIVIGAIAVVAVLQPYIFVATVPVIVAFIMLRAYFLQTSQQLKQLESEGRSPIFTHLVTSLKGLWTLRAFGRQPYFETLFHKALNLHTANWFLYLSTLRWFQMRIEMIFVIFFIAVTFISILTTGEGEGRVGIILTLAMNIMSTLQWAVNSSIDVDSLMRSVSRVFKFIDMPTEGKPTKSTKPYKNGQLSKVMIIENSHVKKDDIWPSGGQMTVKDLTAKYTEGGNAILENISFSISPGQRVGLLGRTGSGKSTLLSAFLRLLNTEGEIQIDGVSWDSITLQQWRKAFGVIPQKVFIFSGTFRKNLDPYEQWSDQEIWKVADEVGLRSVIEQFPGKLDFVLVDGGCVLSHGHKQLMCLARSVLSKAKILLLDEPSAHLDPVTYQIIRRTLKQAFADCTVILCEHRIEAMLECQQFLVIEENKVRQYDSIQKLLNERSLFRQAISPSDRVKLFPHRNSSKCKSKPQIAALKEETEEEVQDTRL
Protocol: Base medium (ADF+++) consisted of Advanced DMEM/Ham's F12, 2 mM Glutamax, 10 mM HEPES, […] penicillin/streptomycin.
Bath 1 Buffer consisted of 1 mM MgCl2, 160 mM NaCl, 4.5 mM KCl, 10 mM HEPES, 10 mM Glucose, 2 mM CaCl2.
Chloride Free Buffer consisted of 1 mM Magnesium Gluconate, 2 mM Calcium Gluconate, 4.5 mM Potassium Gluconate, 160 mM Sodium Gluconate, 10 mM HEPES, 10 mM Glucose.
Bath1 Dye Solution consisted of Bath 1 Buffer, 0.04% Pluronic F127, 20 μM Methyl Oxonol, 30 μM CaCCinh-A01, 30 μM Chicago Sky Blue.
Chloride Free Dye Solution consisted of Chloride Free Buffer, 0.04% Pluronic F127, 20 μM Methyl Oxonol, 30 μM CaCCinh-A01, 30 μM Chicago Sky Blue.
3. Enteroid Cell Harvesting and Seeding
Cells were recovered in cell recovery solution, collected by centrifugation at 650 rpm for 5 min at 4° C., resuspended in TryPLE and incubated for 5 min at 37° C. Cells were then collected by centrifugation at 650 rpm for 5 min at 4° C. and resuspended in IEMM containing 10 μM ROCK inhibitor (RI).
5. Membrane Potential Dye, Enteroid Assay B
Briefly, cells were washed 5 times in Bath 1 Buffer. Bath 1 Dye Solution was added and the cells were incubated for 25 min at room temperature. Following dye incubation, cells were washed 3 times in Chloride Free Dye Solution. Chloride transport was initiated by addition of Chloride Free Dye Stimulation Solution and the fluorescence signal was read for 15 min.

[2] = biological target: T1, CFTR-mediated chloride transport in human intestinal epithelial enteroid cells; experiment: Membrane potential dye, Enteroid Assay A; type: cell-based; conditions: for EC50: read-out: Ent. A EC50
Procedure, shortened: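 Membrane potential dye (20 μM methyl oxonol, with 30 μM CaCCinh-A01 and 30 μM Chicago Sky Blue) loaded 25 min at room temperature into ROCK-inhibitor-seeded human enteroid cells. Chloride-free stimulation buffer triggered transport, followed by 15 min fluorescence. % Activity relative to 3 μM/3 μM/300 nM triple-combination control.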

[3] = percentage of chloride transport of triple combination control (3 μM N-[(6-amino-2-pyridyl)sulfonyl]-6-(3-fluoro-5-isobutoxy-phenyl)-2-[(4S)-2,2,4-trimethylpyrrolidin-1-yl]pyridine-3-carboxamide based)
[4] = enteroid cells incubated with test compound 18-24 hours, acute 10 μM forskolin and 300 nM N-[2,4-bis(1,1-dimethylethyl)-5-hydroxyphenyl]-1,4-dihydro-4-oxoquinoline-3-carboxamide

Compound: Cc1cccc(C)c1-c1cc2nc(n1)NS(=O)(=O)c1cccc(c1)C(=O)N1C[C@@H](CN(C(=O)OC(C)(C)C)C[C@@H]1CCO)O2 (single isomer, unassigned) [Compound 137, tert-butyl 12-(2,6-dimethylphenyl)-20-(2-hydroxyethyl)-2,8,8-trioxo-15-oxa-8λ^6-thia-1,9,11,18,22-pentaazatetracyclo[14.4.1.13,7.110,14]tricosa-3(23),4,6,10(22),11,13-hexaene-18-carboxylate]
- Ent. B Max Activity (%) [1]: +++ (+++ is >600%)
- EC50 [1]: 1 to 3 µM

Compound: Cc1cccc(C)c1-c1cc2nc(n1)NS(=O)(=O)c1cccc(c1)C(=O)N1C[C@@H](CCC[C@@H]1CC(C)C)O2 (single isomer, unassigned) [Compound 179]
- Ent. B Max Activity (%) [1]: + (+ is <30%)

Compound: Cc1cccc(C)c1-c1cc2nc(n1)NS(=O)(=O)c1cccc(c1)C(=O)N1C[C@@H](CCC[C@@H]1CC(C)C)O2 (single isomer, unassigned) [Compound 180]
- Ent. B Max Activity (%) [1]: ++ (++ is 30-60%)
- EC50 [1]: < 1 µM

Compound: Cc1cccc(C)c1-c1cc2nc(n1)NS(=O)(=O)c1cccc(c1)C(=O)N1C[C@H](O2)c2ccccc2[C@@H]1CC(C)C (single isomer, unassigned) [Compound 190, 12-(2,6-Dimethylphenyl)-23-(2-methylpropyl)-15-oxa-8λ^6-thia-1,9,11,25-tetraazapentacyclo[14.7.1.13,7.110,14.017,22]hexacosa-3(26),4,6,10(25),11,13,17,19,21-nonaene-2,8,8-trione]
- Ent. B Max Activity (%) [1]: ++ (++ is 30-60%)
- EC50 [1]: < 1 µM

Compound: Cc1cccc(C)c1-c1cc2nc(n1)NS(=O)(=O)c1cccc(c1)C(=O)N1C[C@H](O2)c2ccccc2[C@@H]1CC(C)C (single isomer, unassigned) [Compound 191, 12-(2,6-Dimethylphenyl)-23-(2-methylpropyl)-15-oxa-8λ^6-thia-1,9,11,25-tetraazapentacyclo[14.7.1.13,7.110,14.017,22]hexacosa-3(26),4,6,10(25),11,13,17,19,21-nonaene-2,8,8-trione]
- Ent. B Max Activity (%) [1]: ++ (++ is 30-60%)
- EC50 [1]: < 1 µM

Compound: Cc1cccc(C)c1-c1cc2nc(n1)NS(=O)(=O)c1cccc(c1)C(=O)N1Cc3cc(C(C)(C)C)ccc3C(CO2)C1C (single isomer, unassigned) [Compound 218, 21-tert-Butyl-12-(2,6-dimethylphenyl)-25-methyl-15-oxa-8λ^6-thia-1,9,11,26-tetraazapentacyclo[15.7.1.13,7.110,14.018,23]heptacosa-3,5,7(27),10,12,14(26),18,20,22-nonaene-2,8,8-trione]
- Ent. B Max Activity (%) [1]: + (+ is <30%)

Compound: Cc1cccc(C)c1-c1cc2nc(n1)NS(=O)(=O)c1cccc(c1)C(=O)N1CCN[C@H](CC(C)C)[C@H](C1)O2 [Compound 118, (16S,17R)-12-(2,6-Dimethylphenyl)-17-(2-methylpropyl)-15-oxa-8λ^6-thia-1,9,11,18,22-pentaazatetracyclo[14.4.1.13,7.110,14]tricosa-3(23),4,6,10(22),11,13-hexaene-2,8,8-trione]
- Ent. B Max Activity (%) [1]: +++ (+++ is >600%)
- EC50 [1]: < 1 µM

Compound: Cc1cccc(C)c1-c1cc2nc(n1)NS(=O)(=O)c1cnn(c1)CC(=O)N1Cc3ccccc3C(C1)O2 (centres unmarked) [Compound 347]
- Ent. A Max Activity (%) [2, 3]: + (+ is <300%)

Compound: Cc1cccc(C)c1-c1cc2nc(n1)NS(=O)(=O)c1cccc(c1)CCC(=O)N1CCC(CC1)O2 [Compound 352]
- Ent. A Max Activity (%) [2, 3]: + (+ is <300%)

Compound: Cc1cccc(C)c1-c1cc2nc(n1)NS(=O)(=O)c1cccc(c1)CCC(=O)N1CCCC(C1)O2 (centres unmarked) [Compound 353]
- Ent. A Max Activity (%) [2, 3]: + (+ is <300%)

Compound: Cc1cccc(C)c1-c1cc2nc(n1)NS(=O)(=O)c1cnn(c1)CC(=O)N1CCCC(C1)O2 (centres unmarked) [Compound 354]
- Ent. A Max Activity (%) [2, 3]: + (+ is <300%)

Compound: Cc1cccc(C)c1-c1cc2nc(n1)NS(=O)(=O)c1cncc(c1)C(=O)N1Cc3ccccc3[C@@H](C1)O2 [Compound 360]
- Ent. A Max Activity (%) [2, 3]: + (+ is <300%)

Compound: Cc1cccc(C)c1-c1cc2nc(n1)NS(=O)(=O)c1cncc(c1)C(=O)N1Cc3ccccc3[C@H](C1)O2 [Compound 361]
- Ent. A Max Activity (%) [2, 3]: + (+ is <300%)

Compound: Cc1cccc(C)c1-c1cc2nc(n1)NS(=O)(=O)c1cccc(c1)C(=O)N1C[C@H]3C[C@@H]1[C@@H](C3)O2 [Compound 364]
- Ent. A Max Activity (%) [2, 3]: ++ (++ is 30-60%)

Compound: Cc1cccc(C)c1-c1cc2nc(n1)NS(=O)(=O)c1cccc(c1)C(=O)N1CCCCC(C1)O2 (centres unmarked) [Compound 369]
- Ent. A Max Activity (%) [2, 3]: + (+ is <300%)

The next lines start with results.

- Ent. B Max Activity (%) [1]: +++ (+++ is >600%)
- EC50 [1]: < 1 µM
Compound: Cc1cccc(C)c1-c1cc2nc(n1)NS(=O)(=O)c1cccc(c1)C(=O)N1Cc3cc(C(C)(C)C)ccc3C(CO2)C1C (single isomer, unassigned) [Compound 219, 21-tert-butyl-12-(2,6-dimethylphenyl)-25-methyl-15-oxa-8λ^6-thia-1,9,11,26-tetraazapentacyclo[15.7.1.13,7.110,14.018,23]heptacosa-3,5,7(27),10,12,14(26),18,20,22-nonaene-2,8,8-trione]

- Ent. B Max Activity (%) [1]: +++ (+++ is >600%)
- EC50 [1]: < 1 µM
Compound: Cc1cccc(C)c1-c1cc2nc(n1)NS(=O)(=O)c1cccc(c1)C(=O)N1CCc3cc(C(C)(C)C)ccc3[C@H]1CO2 (single isomer, unassigned) [Compound 236, 8-tert-Butyl-17-(2,6-dimethylphenyl)-14-oxa-21λ^6-thia-3,18,20,27-tetraazapentacyclo[20.3.1.115,19.03,12.06,11]heptacosa-1(26),6(11),7,9,15(27),16,18,22,24-nonaene-2,21,21-trione]

- EC50 [2, 4]: 1 to 3 µM
Compound: Cc1cccc(C)c1-c1cc2nc(n1)NS(=O)(=O)c1cc(n(C)c1)CC(=O)N1Cc3ccccc3C(C1)O2 (centres unmarked) [Compound 348]
- Ent. A Max Activity (%) [2, 3]: ++ (++ is 30-60%)

- Ent. A Max Activity (%) ([2]; Enteroid Assay A): ++ (++ is 30-60%)
- EC50 ([2]; Enteroid Assay A): 3 to 30 µM
Compound: Cc1cccc(C)c1-c1cc2nc(n1)NS(=O)(=O)c1cccc(c1)C(=O)N1CCC(CCCO2)C1 (centres unmarked) [Compound 355]

- Ent. A Max Activity (%) ([2]; Enteroid Assay A): ++ (++ is 30-60%)
- EC50 ([2]; Enteroid Assay A): 3 to 30 µM
Compound: Cc1cccc(C)c1-c1cc2nc(n1)NS(=O)(=O)c1cccc(c1)C(=O)N1CC(CCCO2)CC1(C)C (centres unmarked) [Compound 356]

- Ent. A Max Activity (%) ([2]; Enteroid Assay A): ++ (++ is 30-60%)
- EC50 ([2]; Enteroid Assay A): < 1 µM
Compound: Cc1cccc(C)c1-c1cc2nc(n1)NS(=O)(=O)c1cccc(c1)C(=O)N1CCCN(CCCC3(C(F)(F)F)CC3)CC(C1)O2 (centres unmarked) [Compound 357]

- Ent. A Max Activity (%) ([2]; Enteroid Assay A): ++ (++ is 30-60%)
- EC50 ([2]; Enteroid Assay A): < 1 µM
Compound: Cc1cccc(C)c1-c1cc2nc(n1)NS(=O)(=O)c1cccc(c1)C(=O)N1CCCN(CCC3(C(F)(F)F)CC3)CC(C1)O2 (centres unmarked) [Compound 358]

- Ent. A Max Activity (%) ([2]; Enteroid Assay A): ++ (++ is 30-60%)
- EC50 ([2]; Enteroid Assay A): 1 to 3 µM
Compound: Cc1cccc(C)c1-c1cc2nc(n1)NS(=O)(=O)c1cccc(c1)C(=O)N1CCCN(C(=O)OC(C)(C)C)CC(C1)O2 (centres unmarked) [Compound 359]

- Ent. A Max Activity (%) ([2]; Enteroid Assay A): ++ (++ is 30-60%)
- EC50 ([2]; Enteroid Assay A): < 1 µM
Compound: Cc1cccc(C)c1-c1cc2nc(n1)NS(=O)(=O)c1cccc(c1)C(=O)N1CC(CC(C)(C)C1)O2 (centres unmarked) [Compound 362]

- EC50 [2, 4]: 3 to 30 µM
Compound: Cc1cccc(C)c1-c1cc2nc(n1)NS(=O)(=O)c1cccc(c1)C(=O)N1C[C@H]3C[C@@H]1[C@@H](C3)O2 [Compound 363]
- Ent. A Max Activity (%) [2, 3]: +++ (+++ is >60%)

- EC50 [2, 4]: 3 to 30 µM
Compound: Cc1cccc(C)c1-c1cc2nc(n1)NS(=O)(=O)c1cccc(c1)C(=O)N1CC3CC(O2)C1C3 (centres unmarked) [Compound 365]
- Ent. A Max Activity (%) [2, 3]: ++ (++ is 30-60%)

- EC50 [2, 4]: 3 to 30 µM
Compound: Cc1cccc(C)c1-c1cc2nc(n1)NS(=O)(=O)c1cccc(c1)C(=O)N1CCOC[C@@H]1CO2 [Compound 366]
- Ent. A Max Activity (%) [2, 3]: ++ (++ is 30-60%)

- EC50 [2, 4]: 3 to 30 µM
Compound: Cc1cccc(C)c1-c1cc2nc(n1)NS(=O)(=O)c1cccc(c1)C(=O)N1CCC[C@@H]1CO2 [Compound 367]
- Ent. A Max Activity (%) [2, 3]: +++ (+++ is >60%)

- EC50 [2, 4]: 1 to 3 µM
Compound: Cc1cccc(C)c1-c1cc2nc(n1)NS(=O)(=O)c1cccc(c1)C(=O)N1CC(C)(C)CC1CO2 (centres unmarked) [Compound 368]
- Ent. A Max Activity (%) [2, 3]: ++ (++ is 30-60%)

- EC50 [2, 4]: < 1 µM
Compound: Cc1cccc(C)c1-c1cc2nc(n1)NS(=O)(=O)c1cccc(c1)C(=O)N1CCC3(CC3)C(C1)O2 (centres unmarked) [Compound 370]
- Ent. A Max Activity (%) [2, 3]: +++ (+++ is >60%)
